This test concerns the target T1, dopa oxidase (Homo sapiens, UniProt P14679).
T1 sequence (P14679 19-529): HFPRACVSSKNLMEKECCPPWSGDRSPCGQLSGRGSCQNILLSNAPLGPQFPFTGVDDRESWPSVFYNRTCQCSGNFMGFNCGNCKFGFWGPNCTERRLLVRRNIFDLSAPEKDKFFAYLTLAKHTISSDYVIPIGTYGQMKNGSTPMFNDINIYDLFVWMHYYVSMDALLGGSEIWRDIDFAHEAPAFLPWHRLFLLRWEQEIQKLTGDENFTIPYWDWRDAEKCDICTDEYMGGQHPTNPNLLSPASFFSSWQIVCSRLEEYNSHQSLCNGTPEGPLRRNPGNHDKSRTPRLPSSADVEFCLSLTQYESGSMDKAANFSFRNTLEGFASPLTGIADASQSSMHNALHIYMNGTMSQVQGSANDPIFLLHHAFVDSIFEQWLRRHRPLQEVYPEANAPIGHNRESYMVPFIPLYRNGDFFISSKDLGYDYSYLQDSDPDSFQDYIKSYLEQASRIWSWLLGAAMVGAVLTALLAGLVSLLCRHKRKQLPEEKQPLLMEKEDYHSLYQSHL
Kind of test: Dopa oxidase activity in cultured melanocytes (MBTH method). The test is classed as cell-based. To be noted: for Dopa oxidase activity of fractions, result in words: activity-guided fractionation of haguro-so 50% ethanol extract, same procedure as Example 1; for inhibition at 0.1 µM: evaluation concentration 0.1 μM; for inhibition at 0.1 µM / inhibition at 0.5 µM / inhibition at 1 µM: relative to control, read-out: Dopa oxidase inhibitory rate (%); for inhibition at 0.5 µM: evaluation concentration 0.5 μM; for inhibition at 1 µM: evaluation concentration 1.0 μM. The method, then:
Normal human neonatal epidermal melanocytes (NHEMs; KURABO INDUSTRIES, LTD.) were seeded in a 96-well plates at a density of 1×10^4 cells/well ([…]) and cultured at 37° C. under a 5% CO2. Cells were maintained in Medium 254 (KURABO INDUSTRIES, LTD.) containing growth supplement (HMGS) without PMA.
After 3-day culture, the haguro-so extracts (water extract, 50% ethanol extract, or 95% ethanol extract) prepared in accordance with the above Production Examples 1 to 3 and having an evaporation residue of 1.0 w/v % were each added to give a final concentration shown in Table 1 together with Endothelin-1 (ET-1), SCF, α-MSH, Histamine, and PGE2 adjusted to have a final concentration of 1 nM in each medium, and cultured under the conditions of 37° C. and a 5% CO2 for 3 days. For a control, an ethanol aqueous solution (10%, 50%, or 95%) of the equal amount was added.
After completion of culture, Alamar Blue (Invitrogen) reagent was added in an amount of 20 μL/well and incubated for 2 to 3 hours, followed by measuring the fluorescence intensity of the medium to measure the cellular respiration activity. […] The dopa oxidase activity was measured by the following method with reference to the MBTH method (Winder A. et al., 1991, Eur. J. Biochem. 198: 317-326).
To each of the wells containing the solubilized cell solution, 80 μL of the above assay buffer, 60 μL of 20.7 mM MBTH (3-methyl-2-benzothiazolinon hydrazone) solution, and 40 μL of 5 mM L-dopa(L-dihydroxyphenylalanine) solution as a substrate were added, reacted at 37° C. for 30 to 60 minutes, thereby measuring the color reaction thereof at 490 nm absorbance (N=3). The measured values were shown in the relative value to the result of the control.
Normal human neonatal epidermal melanocytes (NHEMs; KURABO INDUSTRIES, LTD.) were inoculated in a 96-well plate in a cell density of 1×10^4 cells/well (100 μL/well) and cultured at 37° C. under a 5% CO2. The medium used was Medium 254 containing PMA(−) growth supplement (HMGS).
After 3-day culture, each of the compounds shown in Table 4 was added to give final concentrations shown in the same Table, together with Endothelin-1 (ET-1), SCF, α-MSH, Histamine, and PGE2 adjusted to give a final concentration of 1 nM in each medium, and cultured under the conditions of 37° C. and a 5% CO2 for 3 days. For a control, a DMSO solution of the equal amount was added.
After completion of the culture, Alamar Blue (Invitrogen) reagent was added in an amount of 20 μL/well and incubated for 2 to 3 hours, followed by measuring the fluorescence intensity of the medium to measure the cellular respiration activity. […] The dopa oxidase activity was measured by the following method with reference to the MBTH method (Winder A. et al., Eur. J. Biochem., 1991, 198: 317-326).
To each of the wells containing the solubilized cell solution, 80 μL of the above assay buffer, 60 μL of 20.7 mM MBTH (3-methyl-2-benzothiazolinon hydrazone) solution and 40 μL of 5 mM L-dopa (L-dihydroxyphenylalanine) solution as a substrate were added, reacted at 37° C. for 30 to 60 minutes, thereby measuring the color reaction thereof at 490 nm absorbance (N=3).

As for `COc1cc2c(OC)c3c(c(-c4ccc5c(c4)OCO5)c2cc1OC)C(=O)OC3` [Compound 1, Justicidin A], the “Dopa oxidase activity of fractions, result in words” value was “found”. Further, for the setting “NHEMs, 3 days”, the inhibition at 0.1 µM was determined as 20% and the inhibition at 0.5 µM is 50%. Besides, for the setting “evaluation concentration printed 0.1 μM as third concentration after 0.1 and 0.5, NHEMs, 3 days”, the “Dopa oxidase inhibitory rate (%)” value is given as 55%.
Take `COc1cc2cc3c(c(-c4ccc5c(c4)OCO5)c2cc1OC)C(=O)OC3` [Compound 2, Justicidin B]: the “Dopa oxidase activity of fractions, result in words” value is reported as “found”. Further, for the setting “NHEMs, 3 days”, the inhibition at 0.1 µM was 10%, the inhibition at 0.5 µM was 30% and the inhibition at 1 µM came out at 50%.
For `COc1cc2c(O[C@H]3OCC(O)(CO)C3O)c3c(c(-c4ccc5c(c4)OCO5)c2cc1OC)C(=O)OC3` (stereo partly shown) [Compound 3, Tuberculatin], in that order: “found”, 45%, 50% and 70%.
As for `COc1cc2c(O)c3c(c(-c4ccc5c(c4)OCO5)c2cc1OC)C(=O)OC3` [Compound 4, Diphyllin], for the setting “NHEMs, 3 days”, the inhibition at 0.5 µM is 20% and the inhibition at 1 µM was determined as 40%.
For the molecule `CCOc1c2c(c(-c3ccc4c(c3)OCO4)c3cc(OC)c(OC)cc13)C(=O)OC2` [Compound 5, 4-Ethoxy-6,7-dimethoxy-9-(1,3-benzodioxol-5-yl)naphtho[2,3-c]furan-1(3H)-one], for the setting “NHEMs, 3 days”, the inhibition at 0.1 µM was found to be 40% and the inhibition at 0.5 µM was 60%.
For the molecule `COc1cc2c(OC(C)=O)c3c(c(-c4ccc5c(c4)OCO5)c2cc1OC)C(=O)OC3` [Compound 6, 4-acetoxy-6,7-dimethoxy-9-(1,3-benzodioxol-5-yl)naphtho[2,3-c]furan-1(3H)-one], under “NHEMs, 3 days”, the inhibition at 0.5 µM was found to be 40% and the inhibition at 1 µM was 50%.
Take `COc1c2c(c(-c3ccc4c(c3)OCO4)c3cc4c(cc13)OCO4)C(=O)OC2` [Compound 7, Justicidin F]: the inhibition at 0.1 µM (NHEMs, 3 days) was found to be 20%.

The values above are taken from US9339454B2, “Skin whitening agent” (Kao Corporation, priority 2011, dated 2016).
